Test results from ChEMBL document CHEMBL1201862, “PubChem BioAssay data set” (2004).
Activity calls are given as the source filed them.

Assays:
[1] = target: T1, Small ubiquitin-related modifier 1 (Homo sapiens, UniProt P63165); experiment: SUMO1 protein interaction blockers, potency – biochemical, fluorescence polarization, uHTS hits, dose response (AID 624382); format: functional; details: read-out: IC50_Mean
[2] = target: T1, Small ubiquitin-related modifier 1; experiment: SUMO1 protein-protein binding blockers, potency – biochemical, FRET, dose response (AID 624383); format: functional; details: read-out: IC50_Mean
[3] = target: T2, Histone-lysine N-methyltransferase NSD2 (Homo sapiens, UniProt O96028); format: biochemical
T2 sequence (O96028 whole entry): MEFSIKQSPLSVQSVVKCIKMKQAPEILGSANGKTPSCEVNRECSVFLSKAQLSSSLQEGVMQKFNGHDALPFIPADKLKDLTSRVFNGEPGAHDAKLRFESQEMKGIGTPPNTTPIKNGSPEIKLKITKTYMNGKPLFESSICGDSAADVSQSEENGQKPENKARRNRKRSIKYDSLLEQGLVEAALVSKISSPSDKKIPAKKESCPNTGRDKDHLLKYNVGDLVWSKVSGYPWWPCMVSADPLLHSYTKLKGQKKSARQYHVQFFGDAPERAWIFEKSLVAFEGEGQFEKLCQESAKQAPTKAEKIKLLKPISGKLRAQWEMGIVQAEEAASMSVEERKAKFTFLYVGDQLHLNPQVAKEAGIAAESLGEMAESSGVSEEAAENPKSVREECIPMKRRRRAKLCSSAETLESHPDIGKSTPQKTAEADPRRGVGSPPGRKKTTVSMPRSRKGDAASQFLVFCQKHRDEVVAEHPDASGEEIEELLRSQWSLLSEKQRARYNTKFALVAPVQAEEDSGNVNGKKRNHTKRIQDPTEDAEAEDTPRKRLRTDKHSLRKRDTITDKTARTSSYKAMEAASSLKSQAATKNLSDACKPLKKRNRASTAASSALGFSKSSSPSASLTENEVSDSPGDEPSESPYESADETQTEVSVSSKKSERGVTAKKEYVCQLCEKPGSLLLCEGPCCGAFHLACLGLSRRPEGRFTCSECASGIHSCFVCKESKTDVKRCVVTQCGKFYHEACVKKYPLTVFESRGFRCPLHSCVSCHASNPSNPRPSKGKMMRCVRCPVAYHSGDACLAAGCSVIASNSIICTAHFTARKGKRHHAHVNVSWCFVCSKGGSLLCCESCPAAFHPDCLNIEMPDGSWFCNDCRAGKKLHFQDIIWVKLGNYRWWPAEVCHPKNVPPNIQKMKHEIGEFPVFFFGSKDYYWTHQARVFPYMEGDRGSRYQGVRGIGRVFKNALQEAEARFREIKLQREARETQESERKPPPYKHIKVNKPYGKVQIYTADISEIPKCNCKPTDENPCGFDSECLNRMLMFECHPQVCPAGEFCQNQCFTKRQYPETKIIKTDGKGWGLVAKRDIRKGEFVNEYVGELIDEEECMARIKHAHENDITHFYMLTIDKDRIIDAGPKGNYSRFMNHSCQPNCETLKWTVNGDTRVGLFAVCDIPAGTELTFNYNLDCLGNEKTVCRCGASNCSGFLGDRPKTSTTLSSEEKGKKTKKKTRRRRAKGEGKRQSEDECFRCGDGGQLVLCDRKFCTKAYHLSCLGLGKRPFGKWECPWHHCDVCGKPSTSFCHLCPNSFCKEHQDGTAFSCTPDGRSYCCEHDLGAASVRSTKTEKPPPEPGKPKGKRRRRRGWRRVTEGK

[4] = Luminescence Cell-Based Dose Retest to Confirm Inhibitors of Cancer Stem Cells. [Related pubchem assays (depositor defined):AID2717, AID2721]; format: functional; details: Homo sapiens
[5] = target: T3, Sentrin-specific protease 1 (Homo sapiens, UniProt Q9P0U3); experiment: SENP1 catalytic domain blockers, concentration series – biochemical, kinetic FRET, dose response (AID 651697); format: functional; details: read-out: IC50_Mean
T3 sequence (Q9P0U3 whole entry): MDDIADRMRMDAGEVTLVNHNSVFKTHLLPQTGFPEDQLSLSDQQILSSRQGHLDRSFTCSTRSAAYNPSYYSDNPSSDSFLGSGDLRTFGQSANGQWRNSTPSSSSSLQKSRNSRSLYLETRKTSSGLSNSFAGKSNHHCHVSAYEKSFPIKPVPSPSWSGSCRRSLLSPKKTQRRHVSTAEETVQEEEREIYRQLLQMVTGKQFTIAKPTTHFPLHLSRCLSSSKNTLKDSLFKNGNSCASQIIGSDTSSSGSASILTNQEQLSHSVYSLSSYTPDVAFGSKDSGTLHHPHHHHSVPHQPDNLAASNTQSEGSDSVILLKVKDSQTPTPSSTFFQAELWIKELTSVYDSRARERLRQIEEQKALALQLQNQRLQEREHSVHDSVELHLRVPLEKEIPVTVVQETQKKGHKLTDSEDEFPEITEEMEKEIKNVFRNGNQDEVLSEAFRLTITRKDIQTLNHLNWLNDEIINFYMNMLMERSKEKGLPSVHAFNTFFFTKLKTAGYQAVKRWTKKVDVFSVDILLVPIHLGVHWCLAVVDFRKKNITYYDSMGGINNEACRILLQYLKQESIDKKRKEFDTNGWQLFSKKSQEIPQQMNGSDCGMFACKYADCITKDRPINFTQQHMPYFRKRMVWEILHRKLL

[6] = microbe, parasite or virus in culture; format: functional; details: Mycobacterium tuberculosis
[7] = target: T4, Endoribonuclease toxin MazF (Escherichia coli K-12, UniProt P0AE70); experiment: activation of MazEF endoribonuclease cleavage – biochemical, fluorescence, single-stranded RNA substrate, uHTS hits, dose response (AID 588481); format: functional
T4 sequence (P0AE70 whole entry): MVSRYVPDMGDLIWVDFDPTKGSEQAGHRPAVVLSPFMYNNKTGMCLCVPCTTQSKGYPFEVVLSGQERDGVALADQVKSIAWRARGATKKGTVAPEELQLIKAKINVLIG

[8] = target: T3, Sentrin-specific protease 1; experiment: Dose response confirmation of small molecule inhibitors of the catalytic domain of the SUMO protease, SENP1 in a FRET assay.; format: functional; details: read-out: IC50_Mean
[9] = target: T4, Endoribonuclease toxin MazF; experiment: substrate-only fluorescence increase artefacts – biochemical, single-stranded RNase substrate, counter-screen for MazEF activator project, dose response (AID 588502); format: functional
[10] = target: T5, Cysteine protease ATG4B (Homo sapiens, UniProt Q9Y4P1); format: functional;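 further: Fluorescence-based dose-response confirmation assay measuring inhibition of ATG4B activity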
T5 sequence (Q9Y4P1 whole entry): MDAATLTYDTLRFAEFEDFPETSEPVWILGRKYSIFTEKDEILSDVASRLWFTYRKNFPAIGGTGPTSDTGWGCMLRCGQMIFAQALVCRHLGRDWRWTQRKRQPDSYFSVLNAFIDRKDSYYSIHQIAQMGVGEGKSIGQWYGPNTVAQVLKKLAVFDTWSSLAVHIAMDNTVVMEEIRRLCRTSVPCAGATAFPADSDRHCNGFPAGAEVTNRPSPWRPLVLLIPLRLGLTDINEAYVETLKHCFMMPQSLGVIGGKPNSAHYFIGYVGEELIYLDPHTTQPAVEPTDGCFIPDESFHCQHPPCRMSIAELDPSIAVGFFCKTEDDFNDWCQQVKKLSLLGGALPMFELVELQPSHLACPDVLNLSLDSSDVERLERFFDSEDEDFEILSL

[11] = viability of HCT116 lacking mutant beta-catenin – cell-based, human colon tumor, dose response (AID 1045); format: functional;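 further: HCT116 colon tumor cells with beta catenin knocked out; cells exposed to compound for 60 hours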
[12] = viability of PTEN-deleted HCT116 cells – cell-based, HCT116 PTEN knockout, dose response (AID 1047); format: functional;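 further: HCT116 colon tumor cells with PTEN knocked out; cells exposed to compound for 60 hours before readout; potency for loss of cell viability measured by luminescence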
[13] = target: Phospholipase A2 (Homo sapiens, UniProt P04054); format: functional;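 further: confirmatory dose-response counterscreen on phospholipase A2, testing hits that came from an ultra-high-throughput screen for ATG4B inhibitors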
Sequence of Phospholipase A2 (P04054 whole entry): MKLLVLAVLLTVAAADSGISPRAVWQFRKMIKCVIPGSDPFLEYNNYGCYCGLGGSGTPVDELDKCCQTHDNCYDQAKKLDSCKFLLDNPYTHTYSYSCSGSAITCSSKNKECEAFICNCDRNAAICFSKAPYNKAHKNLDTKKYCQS

[14] = target: T6, Galanin receptor type 3 (Homo sapiens, UniProt O60755); experiment: Fluorescence-based cell-based primary high throughput dose response assay to identify antagonists of the Galanin Receptor 3 (GalR3).; format: functional
T6 sequence (O60755 whole entry): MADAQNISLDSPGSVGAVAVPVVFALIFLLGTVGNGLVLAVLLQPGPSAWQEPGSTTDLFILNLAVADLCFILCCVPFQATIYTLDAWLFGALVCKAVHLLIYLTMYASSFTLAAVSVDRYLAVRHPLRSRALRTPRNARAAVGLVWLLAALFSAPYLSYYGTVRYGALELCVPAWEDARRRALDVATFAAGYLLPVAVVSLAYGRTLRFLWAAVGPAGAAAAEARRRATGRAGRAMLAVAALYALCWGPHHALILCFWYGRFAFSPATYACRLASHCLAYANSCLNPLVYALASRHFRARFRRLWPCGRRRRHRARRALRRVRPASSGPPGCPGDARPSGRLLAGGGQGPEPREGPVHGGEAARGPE

[15] = cells; format: functional, cell-based; details: HEK-CNG

T1 sequence (P63165 whole entry): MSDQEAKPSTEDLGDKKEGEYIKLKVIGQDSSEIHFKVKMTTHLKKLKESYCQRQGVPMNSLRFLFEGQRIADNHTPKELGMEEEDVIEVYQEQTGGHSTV

In the case of `CCOC(=O)C1=C(COc2ccccc2)NC(=O)NC1c1ccc(Cl)cc1` (stereo not drawn), the IC50 [1] is reported as > 66.6 µM (inactive) and the IC50 [2] is reported as 15.7 µM (active).
In the case of `CCN(CC)CCCNC(=O)c1cc2c(Cl)nc3ccccc3c2s1`, the AC50 [3] is reported as 16.8 µM (active) and the AC50 [4] is reported as 1.58 µM (active).
In the case of `c1cc(Nc2cccc3nccnc23)c2nccnc2c1`, the IC50 [5] is reported as 25.6 µM (inactive), the CC50 [6] is reported as 31.7 µM (active) and the EC50 [7] is reported as > 99 µM (inactive). For the same compound, the IC50 [8] was 24.5 µM (inactive) and the EC50 [9] was > 99 µM (inactive).
With `C=C(C)Cn1c(SCC(=O)N/N=C/c2c(O)ccc3ccccc23)nc2ccccc2c1=O` the IC50 [10] was 13.3 µM (active), the EC50 [11] was 16.6 µM (active) and the EC50 [12] was 19.5 µM (active). For the same compound, the AC50 [4] was 3.05 µM (active) and the IC50 [13] was 7.98 µM (active).
For `CCCc1ccc(OC(=O)c2cccs2)cc1`, the IC50 [10] was 10.7 µM (active) and the IC50 [13] was 10.2 µM (active).
For `CC(C)Cn1c(N)c(C(=O)COC(=O)/C=C/c2ccccc2)c(=O)n(C)c1=O`, the IC50 [14] was > 29.9 µM (inactive) and the EC50 [15] was > 29.9 µM (inactive).
